Data reported in patent US10022459B2, “Medical tissue-marker and manufacturing method for the same” (NATIONAL UNIVERSITY CORPORATION CHIBA UNIVERSITY, priority 2011, dated 2018).

Columns and labels:
[1] = test system: submucosal layer of the stomach wall of a pig; test: Local injection into submucosal layer of the stomach wall of a pig, fluorescent laparoscope view from the outside of the stomach; assay type: in vivo
Experimental: Then, the fabricated clusters were injected into biological tissue and the result thereof was confirmed. Specifically, submucosal layer of the stomach wall of a pig was a most suitable target of the marker administration. The fluid dispersion of 300 μl, including the clusters, was administrated on four points surrounding a metal clip placed inside the stomach by local injection.
The left and middle panels show conventional and fluorescent laparoscopic images immediately after local injection, respectively. […] It was confirmed that the clusters were sufficiently stable at the injection points. […] In this case, the exact injection positions were unclear immediately after injection as well as 6 hours after injection.
Herein, the stability was again confirmed 24 hours after the local injection of the marker. The submucosal layer of the stomach wall was a most suitable target of the marker administration. The fluid dispersion of 300 μl including clusters was administrated at two points surrounding a metal clip by local injection. The pig recovered from general anesthesia after the administration. Twenty-four hours later, laparoscopy was performed again under general anesthesia.
The optimum injection amount of the marker was verified. When the concentration of the clusters according to the example 1 was 100 μl or more, the injection points could be confirmed. The concentration thereof was preferably 200 μl or more, and is more preferably 300 μl or more. In FIG. 17, 50 μl was used. In FIG. 18, 100 μl was used. In FIG. 19, 200 μl was used. In FIG. 20, 300 μl was used.

[2] = test system: stomach of the pig; test: Fluorescence imaging (near-infrared LED light) of the excised pig stomach after marker administration; assay type: in vivo; conditions: 32 hours after administration, 300 μl each at four points
Experimental: Then, the stomach of the pig was excised, and fluorescence and X-ray CT imaging was performed 32 hours after the marker (300 μl each at four points around a metal clip) administration.

SMILES: CC1(C)C(/C=C/C=C/C=C/C=C2\N(CCCCS(=O)(=O)O)c3ccc4ccccc4c3C2(C)C)=[N+](CCCCS(=O)(=O)[O-])c2ccc3ccccc3c21 [ICG aqueous solution, indocyanine green]
- identification of injection points in fluorescent laparoscopic image ([1]; 6 hours after local injection, 300 μl at four points): unclear
- distinguishability of four closely located injection points by fluorescent laparoscope ([1]; 18 hours after administration, 300 μl at four points): impossible to distinguish
- identification of injection points in fluorescent laparoscopic image ([1]; immediately after local injection): unclear
- fluorescence pattern at the injection site [2]: broad diffusion of the fluorescence
